Experiments:
HCC1937 [1] = test: Cell cycle after drug washout, HCC1937; type: cell-based, human; details: 650 nM for 72 h, then 48 h of drug washout
Protocol: Cells were staining with propidium iodide then analyzed using a FACScan flow cytometer. […] After 72 h of treatment, control and treated cells were washed with PBS and re-incubated with compound (1-1) free medium (drug washout). As show in FIG. 14A-14C, significant differences in the percentage of compound (1-1)-treated cells in the G1, S and G2/M phases with respect to untreated controls were determined by a one-way ANOVA test (p<0.001) followed by an SNK a posteriori test. After washout, significant differences in the percentage of cells in a given cell cycle phase between control and pre-treated cells were determined with the Student t-test for independent samples with equal or different variance, as appropriate. * , × and # means significant difference between treated cells respect and controls in G1 phase (*p<0.05, **p<0.01), G2/M phase (×p<0.05, ××p<0.01) and S phase p<0.05, ## p<0.01), respectively. Each bar and vertical line represents the mean±SEM, respectively (n≥3).

HCC1937 [2] = test: Cell counting proliferation, HCC1937; type: cell-based; details: Homo sapiens
[3] = Pharmacokinetics and oral bioavailability in dogs; type: in vivo; details: male, beagle, plasma; dog; 1 mg/kg IV; solution in water:ethanol:PEG400 (60:20:20)
Protocol: Blood samples were collected from the jugular vein of each animal at 0 (pre-dose), 5, 15, and 30 minutes and 1, 2, 4, 8, 12, and 24 hours following intravenous administration and at 0 (pre-dose), 15 and 30 minutes and 1, 2, 4, 8, 12, and 24 hours following oral gavage administration. The amount of compound (1-1) present in each sample was detected using a qualified LC-MS/MS method with a lower limit of quantification of 0.5 ng/mL. The area under the plasma concentration-time curve (AUC) was determined by use of the linear trapezoidal rule up to the last measurable concentration without extrapolation of the terminal elimination phase to infinity. The elimination half-life (t1/2) was calculated by least-squares regression analysis of the terminal linear part of the log concentration-ime curve. The maximum plasma concentration (Cmax) and the time to Cmax (tmax) were derived directly from the plasma concentration data. The oral bioavailability (F) was calculated by dividing the dose normalized AUC after oral administration by the dose normalized AUC after intravenous administration and reported as percentages (%).

Oral exposure in the rat = type: in vivo, Sprague Dawley rats; details: 1 mg/kg intravenous
Protocol: The oral bioavailability of three formulations of solid dispersions of compound (1-1) was determined in rats. The three dispersions chosen were the 25% dispersion of compound (1-1) in PVP, the 25% dispersion of compound (1-1) in HPMCAS-MG, and the 50% dispersion of compound (1-1) in HPMCAS-MG. The animals used in the study were Specific Pathogen Free (SPF) Hsd: Sprague Dawley rats obtained from the Central Animal Laboratory at the University of Turku, Finland. The rats were originally purchased from Harlan, The Netherlands. The rats were female and were ten weeks of age, and 12 rats were used in the study. […]
The oral dosing solutions containing the 25% dispersion of compound (1-1) in PVP, the 25% dispersion of compound (1-1) in HPMCAS-MG, and the 50% dispersion of compound (1-1) in HPMCAS-MG were prepared by adding a pre-calculated amount of sterile water for injection to containers holding the dispersion using appropriate quantities to obtain a concentration of 0.75 mg/mL of compound (1-1). […]
Pharmacokinetic parameters were calculated with the Phoenix WinNonlin software package (version 6.2.1, Pharsight Corp., CA, USA) with standard noncompartmental methods. The elimination phase half-life (t1/2) was calculated by least-squares regression analysis of the terminal linear part of the log concentration-time curve. […]

[4] = HCC1937, 48 h, 48 h exposure, hypoxia (0.1% O2)
[5] = HCC1937, 72 h, 72 h exposure, hypoxia (0.1% O2)
[6] = HCC1937, 72 h, 72 h exposure, normoxia

GI50 (HCC1937 [2]; [4]): > 6000 nM
GI50 (HCC1937 [2]; HCC1937, 48 h, 48 h exposure, normoxia): > 6000 nM
GI50 (HCC1937 [2]; [5]): 247 nM
GI50 (HCC1937 [2]; [6]): 262 nM
Cmax [3]: 0.769 ng/mL
CI/F (Oral exposure in the rat): 13.4 mL/min/kg
Structure (SMILES): Cc1sc2c(c1C)C(c1ccc(Cl)cc1)=N[C@@H](CC(=O)Nc1ccc(O)cc1)c1nnc(C)n1-2 [Compound (1-1), 2-[(6S)-4-(4-chlorophenyl)-2,3,9-trimethyl-6H-thienol[3,2-f]-[1,2,4]triazolo[4,3-a][1,4]diazepin-6-yl]-N-(4-hydroxyphenyl)acetamide dihydrate]
cell cycle pattern after drug washout (HCC1937 [1]): recovered the control cell cycle pattern
Emax (HCC1937 [2]; [4]): 27%
Emax (HCC1937 [2]; HCC1937, 48 h, 48 h exposure, normoxia, percent with respect to control untreated cells): 31%
Emax (HCC1937 [2]; [5]): 54%
Emax (HCC1937 [2]; [6]): 70%
